# Measurements taken from patent US5929075A, “Apolipoprotein-B synthesis inhibitors” (Janssen Pharmaceutica, N.V., priority 1994, dated 1999).
# Tested on: apolipoprotein B
# Test: Apolipoprotein B (apo B) inhibition test in cultured human liver cells (Hepg2-cells)
# Format: cell-based
# Conditions: concentration of the drug needed to reduce apoB secretion to 50% of the control, overnight at 37° C.
# Procedure: Cultured human liver cells (Hepg2-cells), which synthesize and secrete low-density lipoproteins, were incubated overnight at 37° C. in a liquid medium containing radioactively labelled leucine. Thus radioactively labelled leucine was incorporated into the apolipoprotein B. The liquid medium was decanted and the apolipoprotein B was isolated by means of a double immunoprecipitation, i.e. first an apolipoprotein B-specific antibody (antibody1) was added to the liquid medium and subsequently a second antibody (antibody2) was added which binds specifically to the apoB-antibody1 -complex. The thus formed apoB-antibody1 -antibody2 complex precipitated and was isolated by centrifuge. Quantification of the amount of apolipoprotein B synthesized during the night resulted from measuring the radioactivity of the isolated complex. To measure the inhibiting activity of the test compound, that test compound was added to the liquid medium at different concentrations and the concentration of apolipoprotein B synthesized in the presence of a test compound (concentration apoB(after)) was compared to the concentration of apolipoprotein B which was synthesized in the absence of the test compound (concentration apoB(control)). For each experiment the inhibition of apolipoprotein-B formation was expressed as
# % inhibition=100×(1-concentration of apoB(after)/concentration
# When more experiments were carried out for the same concentration, the median value of the inhibition calculated for these experiments was calculated. IC50 -values (concentration of the drug needed to reduce apoB secretion to 50% of the control) were also computed.
row,Structure (SMILES),IC50
1,CCC(CC)n1cnn(-c2ccc(N3CCN(c4ccc(OC[C@@H]5CO[C@@](CSc6nncn6C)(c6ccc(Cl)cc6)O5)cc4)CC3)cc2)c1=O (relative stereo) [Compound 7],79 nM
2,CCC(C)n1ncn(-c2ccc(N3CCN(c4ccc(OC[C@H]5CO[C@](CSc6ncnn6C)(c6ccc(Cl)cc6)O5)cc4)CC3)cc2)c1=O (relative stereo) [Compound 60],46 nM
3,CCC(C)n1ncn(-c2ccc(N3CCN(c4ccc(OC[C@H]5CO[C@](CSc6nnc(O)n6C)(c6ccc(Cl)cc6)O5)cc4)CC3)cc2)c1=O (relative stereo) [Compound 58],310 nM
4,Cn1cnnc1SC[C@@]1(c2ccc(F)cc2F)OC[C@@H](COc2ccc(N3CCN(c4ccc(-n5ncn(C6CCCC6)c5=O)cc4)CC3)cc2)O1 (relative stereo) [Compound 13],510 nM
5,CCC(C)n1cnn(-c2ccc(N3CCN(c4ccc(OC[C@H]5CO[C@](CSc6ncnn6C)(c6ccc(F)cc6F)O5)cc4)CC3)cc2)c1=O (relative stereo) [Compound 71],120 nM
6,CCC(C)n1ncn(-c2ccc(N3CCN(c4ccc(OC[C@H]5CO[C@](CSc6ncccn6)(c6ccc(Cl)cc6)O5)cc4)CC3)cc2)c1=O (relative stereo) [Compound 101],160 nM
7,"CCC(C)n1ncn(-c2ccc(N3CCN(c4ccc(OC[C@@H]5CO[C@@](CSc6nncn6C)(c6ccc(Cl)cc6)O5)cc4)CC3)cc2)c1=O (relative stereo) [Compound 22, (±)-cis-4-[4-[4-[4-[[2-(4-chlorophenyl)-2-[[(4-methyl-4H-1,2,4-triazol-3-yl)thio]methyl]-1,3-dioxolan-4-yl]methoxy]phenyl]-1-piperazinyl]-phenyl]-2,4-dihydro-2-(1-methylpropyl)-3H-1,2,4-triazol-3-one]",71 nM
8,CC(C)Cn1cnn(-c2ccc(N3CCN(c4ccc(OC[C@H]5CO[C@](CSc6ncn[nH]6)(c6ccc(Cl)cc6)O5)cc4)CC3)cc2)c1=O (relative stereo) [Compound 84],28 nM
9,CC(C)n1ncn(-c2ccc(N3CCN(c4ccc(OC[C@@H]5CO[C@@](CSc6nncn6C)(c6ccc(Cl)cc6)O5)cc4)CC3)cc2)c1=O (relative stereo) [Compound 33],91 nM
10,CCCCCn1cnn(-c2ccc(N3CCN(c4ccc(OC[C@@H]5CO[C@@](CSc6nncn6C)(c6ccc(Cl)cc6)O5)cc4)CC3)cc2)c1=O (relative stereo) [Compound 18],41 nM
11,Cn1ncnc1SC[C@]1(c2ccc(F)cc2)OC[C@H](COc2ccc(N3CCN(c4ccc(-n5cnn(C6CCCC6)c5=O)cc4)CC3)cc2)O1 (relative stereo) [Compound 66],130 nM
12,CCC(C)n1ncn(-c2ccc(N3CCN(c4ccc(OC[C@H]5CO[C@](CSc6nnnn6-c6ccccc6)(c6ccc(Cl)cc6)O5)cc4)CC3)cc2)c1=O (relative stereo) [Compound 89],510 nM
13,CCC(C)n1ncn(-c2ccc(N3CCN(c4ccc(OC[C@H]5CO[C@](CSc6nnnn6C)(c6ccc(Cl)cc6)O5)cc4)CC3)cc2)c1=O (relative stereo) [Compound 88],450 nM
14,CCC(C)n1ncn(-c2ccc(N3CCN(c4ccc(OC[C@@H]5CO[C@@](CSc6nnc(C(F)(F)F)n6C)(c6ccc(Cl)cc6)O5)cc4)CC3)cc2)c1=O (relative stereo) [Compound 50],260 nM
15,CCC(C)n1ncn(-c2ccc(N3CCN(c4ccc(OC[C@H]5CO[C@](CSc6nnc(C)n6C)(c6ccc(Cl)cc6)O5)cc4)CC3)cc2)c1=O (relative stereo) [Compound 56],230 nM
16,Cn1cnnc1SC[C@]1(c2ccc(F)cc2)OC[C@H](COc2ccc(N3CCN(c4ccc(-n5ccn(C6CCCC6)c5=O)cc4)CC3)cc2)O1 (relative stereo) [Compound 128],180 nM
17,CCC(CC)n1cnn(-c2ccc(N3CCN(c4ccc(OC[C@@H]5CO[C@@](CSc6nncn6C)(c6ccc(F)cc6)O5)cc4)CC3)cc2)c1=O (relative stereo) [Compound 12],190 nM
18,CCC(C)n1cnn(-c2ccc(N3CCN(c4ccc(OC[C@@H]5CO[C@@](CSc6nncn6C)(c6ccc(Cl)cc6)O5)cc4)CC3)cc2)c1=O (relative stereo) [Compound 2],47 nM
